In assay [1] the target is T1, PARG (Homo sapiens, UniProt Q86W56). Nature of the assay: Inhibition of PARG enzymatic assay (TR-FRET enzymatic IC50 assay). The format is biochemical. Details: purchased Peak Proteins. The following applies: hPARG 250 pM, biotinylated-PARylated PARP substrate 30 nM. The method, then: PARG enzyme was incubated with compound or vehicle (DMSO) and the biotinylated-PARylated PARP substrate in a microtiter plate. After adding detection antibody and streptavidin-europium, and then incubating, the plate was read for fluorescence intensity. The low control (DMSO) with low fluorescence intensity represents no inhibition of enzymatic reaction while the high control (no enzyme) with high fluorescence intensity represents full inhibition of enzymatic reaction.
T1 sequence (Q86W56 whole entry): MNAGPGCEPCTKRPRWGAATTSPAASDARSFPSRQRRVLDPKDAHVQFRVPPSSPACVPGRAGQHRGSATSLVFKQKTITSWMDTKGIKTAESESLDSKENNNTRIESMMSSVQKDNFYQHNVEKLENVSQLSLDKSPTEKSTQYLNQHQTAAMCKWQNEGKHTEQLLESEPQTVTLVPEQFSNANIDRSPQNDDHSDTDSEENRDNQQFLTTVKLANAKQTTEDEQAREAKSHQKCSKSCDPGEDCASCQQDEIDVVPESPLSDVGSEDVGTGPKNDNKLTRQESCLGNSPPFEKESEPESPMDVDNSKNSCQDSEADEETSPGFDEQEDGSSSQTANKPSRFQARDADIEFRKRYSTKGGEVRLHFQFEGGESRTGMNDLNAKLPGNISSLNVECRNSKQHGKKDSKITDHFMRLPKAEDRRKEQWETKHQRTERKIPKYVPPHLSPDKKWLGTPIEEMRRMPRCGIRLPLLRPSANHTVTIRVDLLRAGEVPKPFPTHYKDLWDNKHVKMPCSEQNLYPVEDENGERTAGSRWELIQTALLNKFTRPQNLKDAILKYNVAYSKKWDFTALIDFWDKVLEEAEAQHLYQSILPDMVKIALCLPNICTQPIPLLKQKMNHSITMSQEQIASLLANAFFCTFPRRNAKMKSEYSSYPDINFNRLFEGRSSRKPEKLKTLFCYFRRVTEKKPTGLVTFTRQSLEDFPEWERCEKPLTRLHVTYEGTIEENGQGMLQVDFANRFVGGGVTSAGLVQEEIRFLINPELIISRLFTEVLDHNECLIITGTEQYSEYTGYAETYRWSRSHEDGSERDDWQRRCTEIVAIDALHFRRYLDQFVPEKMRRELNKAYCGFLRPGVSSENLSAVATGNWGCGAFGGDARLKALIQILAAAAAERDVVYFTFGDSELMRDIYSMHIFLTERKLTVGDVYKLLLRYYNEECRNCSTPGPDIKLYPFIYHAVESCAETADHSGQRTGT
• PARG • hPARG: 250 pM, His-tagged, Peak Proteins, 0.96 mg/mL (8.58 μM) • Substrate: 30 nM • Reaction time: 70 minutes • Substrate: hPARP1, His- and TEV-tagged, Peak Proteins, 14 μM • Detection Antibody: anti-His monoclonal antibody-ULight, Perkin Elmer catalog #TRF0105-M • Streptavidin-Europium: Perkin Elmer catalog #AD0062 • Assay buffer: 50 mM Tris-HCl pH 7.4, 50 mM KCl, 3 mM EDTA, 0.4 mM EGTA, 1 mM DTT, 0.01% Tween 20, 0.01% BSA • Temperature: 23° C. • Total volume: 20 μL
• 0% inhibition control: DMSO • 100% inhibition control: No enzyme
• 1. Transfer 5 μL of 3× final concentration of test compounds or DMSO to the appropriate wells of a microtiter plate. • 2. Centrifuge the plate at 1000 rpm for 1 minute. • 3. Transfer 5 μL of 3× final concentration of enzyme in assay buffer or assay buffer alone to the appropriate wells. • 4. Centrifuge the plate at 1000 rpm for 1 minute. • 5. Incubate the plate at room temperature for 1 hour. • 6. Transfer 5 μL of 3× substrate in assay buffer to all the test wells. • 7. Centrifuge the plate at 1000 rpm for 1 minute. • 8. Incubate the plate at room temperature for 10 minutes. • 9. Transfer 5 μL of 3× mixture of detection antibody and streptavidin-europium in assay buffer to all the test wells. • 10. Centrifuge the plate at 1000 rpm for 1 minute. • 11. Incubate the plate at room temperature for 1 hour. • 12. Read the plate on a plate reader (e.g., Infinite M1000).
On the technique in general: Time-resolved FRET reads energy transfer from a long-lived donor to a nearby acceptor.

The target of assay [2] is T1, PARG. Nature of the assay: Inhibition of PARG cellular assay (PAR foci in HeLa cells after MMS). The format is cell-based. Also on record: endogenous in cells; host or cells: HeLa. As to conditions: compound 1 h then MMS 1 h. As for the experimental part:
The ability of the compounds disclosed herein to inhibit PARG was determined as described below. Briefly, after treating HeLa cells with the compounds of the disclosure for 1 h, followed by treatment with DNA alkylating agent methylmethanesulfonate (MMS) for an additional 1 h, the cells were fixed in 3.7% formaldehyde. The cells were permeabilized in 0.5% Triton-X100, blocked in 5% goat serum, and incubated with mouse monoclonal antibody against poly (ADP) ribose (PAR) polymer overnight at 4° C. The cells were washed and incubated with an Alexafluor 488-linked secondary antibody together with a nuclear stain (Hoechst 33342) for an hour at room temperature. After washing, images of the cells were captured and analyzed on a high content imaging microscope and software. Two measurement of PAR chain were quantified with the mean intensity over background of the nuclear foci (fluorescent signal at 488 nm range 0.3-2.0 μm foci) quantified as PAR foci (PAR Foci IC50). The cells with a PAR foci signal >1.3 was considered as positive (PAR % positive IC50), and the percentage positive cells are quantified.

Where only a bound is given, the exact number is not on record here.

Consider `N#CC1(NS(=O)(=O)c2cc(-c3c[nH]cn3)c3cnn(-c4nnc(C(F)F)s4)c3c2)CC1` [Example 9, 1-[({1-[5-(difluoromethyl)(1,3,4-thiadiazol-2-yl)]-4-imidazol-4-yl-1H-indazol-6-yl}sulfonyl)amino]cyclopropanecarbonitrile], for which the concentration for half-maximal inhibition (IC50) in assay [1] fell in the range of 0.3 to 1 µM; in assay [2], 1 to 10 µM.
For `N#CC1(NS(=O)(=O)c2cc(-c3ccnnc3)c3cnn(-c4nnc(C(F)F)s4)c3c2)CC1` [Example 10, 1-[({1-[5-(difluoromethyl)(1,3,4-thiadiazol-2-yl)]-4-pyridazin-4-yl-1H-indazol-6-yl}sulfonyl)amino]cyclopropanecarbonitrile], in that order: 0.1 to 0.3 µM and 1 to 10 µM.
On to `N#CC1(NS(=O)(=O)c2cc(-c3cccnn3)c3cnn(-c4nnc(C(F)F)s4)c3c2)CC1` [Example 11, 1-[({1-[5-(difluoromethyl)(1,3,4-thiadiazol-2-yl)]-4-pyridazin-3-yl-1H-indazol-6-yl}sulfonyl)amino]cyclopropanecarbonitrile], for which the results for the IC50 in assay [1] and in assay [2] were 0.1 to 0.3 µM and 1 to 10 µM, respectively.
On the same counts, the results for `Cn1cnc(-c2cc(S(=O)(=O)NC3(C#N)CC3)cc3c2cnn3-c2nnc(C(F)F)s2)c1` [Example 12, 1-[({1-[5-(difluoromethyl)(1,3,4-thiadiazol-2-yl)]-4-(1-methylimidazol-4-yl)-1H-indazol-6-yl}sulfonyl)amino]cyclopropanecarbonitrile] are 0.3 to 1 µM and 0.3 to 1 µM.
On the same counts, the results for `N#CC1(NS(=O)(=O)c2cc(-c3cscn3)c3cnn(-c4nnc(C(F)F)s4)c3c2)CC1` [Example 13, 1-[({1-[5-(difluoromethyl)(1,3,4-thiadiazol-2-yl)]-4-(1,3-thiazol-4-yl)-1H-indazol-6-yl}sulfonyl)amino]cyclopropanecarbonitrile] are 0.3 to 1 µM and 0.3 to 1 µM.
For `N#CC1(NS(=O)(=O)c2cc(-c3ccncc3)c3cnn(-c4nnc(C(F)F)s4)c3c2)CC1` [Example 16, 1-[({1-[5-(difluoromethyl)(1,3,4-thiadiazol-2-yl)]-4-(4-pyridyl)-1H-indazol-6-yl}sulfonyl)amino]cyclopropanecarbonitrile], in that order: 0.1 to 0.3 µM and 1 to 10 µM.
With `N#CC1(NS(=O)(=O)c2cc(-c3cccnc3)c3cnn(-c4nnc(C(F)F)s4)c3c2)CC1` [Example 17, 1-[({1-[5-(difluoromethyl)(1,3,4-thiadiazol-2-yl)]-4-(3-pyridyl)-1H-indazol-6-yl}sulfonyl)amino]cyclopropanecarbonitrile], the results for the 50% inhibitory concentration (IC50) in assay [1] and in assay [2] were 0.3 to 1 µM and 1 to 10 µM, respectively.
For `N#CC1(NS(=O)(=O)c2cc(-c3cnccn3)c3cnn(-c4nnc(C(F)F)s4)c3c2)CC1` [Example 18, 1-[({1-[5-(difluoromethyl)(1,3,4-thiadiazol-2-yl)]-4-pyrazin-2-yl-1H-indazol-6-yl}sulfonyl)amino]cyclopropanecarbonitrile], in that order: 0.1 to 0.3 µM and 1 to 10 µM.
For the compound `COc1cc(-c2cc(S(=O)(=O)NC3(C(N)=O)CC3)cc3c2cnn3-c2nnc(C(F)F)s2)ncn1` [Example 19, 1-[({1-[5-(difluoromethyl)(1,3,4-thiadiazol-2-yl)]-4-(6-methoxypyrimidin-4-yl)-1H-indazol-6-yl}sulfonyl)amino]cyclopropanecarboxamide], the IC50 in assay [1] is 0.3 to 1 µM; in assay [2] it was 1 to 10 µM.
With `COc1nccc(-c2cc(S(=O)(=O)NC3(C(N)=O)CC3)cc3c2cnn3-c2nnc(C(F)F)s2)n1` [Example 20, 1-[({1-[5-(difluoromethyl)(1,3,4-thiadiazol-2-yl)]-4-(2-methoxypyrimidin-4-yl)-1H-indazol-6-yl}sulfonyl)amino]cyclopropanecarboxamide], the IC50 in assay [1] fell in the range of 0.3 to 1 µM; in assay [2], 1 to 10 µM.
`COc1cc(-c2cc(S(=O)(=O)NC3(C#N)CC3)cc3c2cnn3-c2nnc(C(F)F)s2)ncn1` [Example 22, 1-[({1-[5-(difluoromethyl)(1,3,4-thiadiazol-2-yl)]-4-(6-methoxypyrimidin-4-yl)-1H-indazol-6-yl}sulfonyl)amino]cyclopropanecarbonitrile] came in with a half-maximal inhibitory concentration (IC50) in assay [2] of 0.3 to 1 µM.
Regarding `N#CC1(NS(=O)(=O)c2cc(N3CCC4(CCOC4)CC3)c3cnn(-c4nnc(C(F)F)s4)c3c2)CC1` [Example 29, 1-[({1-[5-(difluoromethyl)(1,3,4-thiadiazol-2-yl)]-4-(2-oxa-8-azaspiro[4.5]dec-8-yl)-1H-indazol-6-yl}sulfonyl)amino]cyclopropanecarbonitrile], the IC50 lay within 0.1 to 0.3 µM in assay [1] and 0.3 to 1 µM in assay [2].
On to `N#CC1(NS(=O)(=O)c2cc(N3CCC4(CCOCC4)CC3)c3cnn(-c4nnc(C(F)F)s4)c3c2)CC1` [Example 30, 1-[({1-[5-(difluoromethyl)(1,3,4-thiadiazol-2-yl)]-4-(9-oxa-3-azaspiro[5.5]undec-3-yl)-1H-indazol-6-yl}sulfonyl)amino]cyclopropanecarbonitrile], for which the IC50 in assay [1] was 0.3 to 1 µM; in assay [2] it was 1 to 10 µM.
Turning to `N#CC1(NS(=O)(=O)c2cc(N3CCCOCC3)c3cnn(-c4nnc(C(F)F)s4)c3c2)CC1` [Example 42, 1-[({1-[5-(difluoromethyl)(1,3,4-thiadiazol-2-yl)]-4-(1,4-oxazaperhydroepin-4-yl)-1H-indazol-6-yl}sulfonyl)amino]cyclopropanecarbonitrile], the IC50 in assay [1] was in the range of 1 to 10 µM.
In assay [1], `CN(C)C(=O)C1CN(c2cc(S(=O)(=O)NC3(C#N)CC3)cc3c2cnn3-c2nnc(C(F)F)s2)C1` [Example 55, [1-(1-[5-(difluoromethyl)(1,3,4-thiadiazol-2-yl)]-6-{[(cyanocyclopropyl)amino]sulfonyl}(1H-indazol-4-yl))azetidin-3-yl]-N,N-dimethylcarboxamide] yielded a concentration for half-maximal inhibition (IC50) of 0.3 to 1 µM.
Still for that read-out and setting: the value for `N#CC1(NS(=O)(=O)c2cc(N3CCN4C(=O)OC[C@@H]4C3)c3cnn(-c4nnc(C(F)F)s4)c3c2)CC1` [Example 62, 1-[({4-((1S)-7-oxo-8-oxa-3,6-diazabicyclo[4.3.0]non-3-yl)-1-[5-(difluoromethyl) (1,3,4-thiadiazol-2-yl)]-1H-indazol-6-yl}sulfonyl)amino]cyclopropanecarbonitrile] was not above 0.1 µM; that for `N#CC1(NS(=O)(=O)c2cc(N3CCCC4(COC4)C3)c3cnn(-c4nnc(C(F)F)s4)c3c2)CC1` [Example 65, 1-[({1-[5-(difluoromethyl)(1,3,4-thiadiazol-2-yl)]-4-(2-oxa-6-azaspiro[3.5]non-6-yl)-1H-indazol-6-yl}sulfonyl)amino]cyclopropanecarbonitrile] was 0.3 to 1 µM.
`N#CC1(NS(=O)(=O)c2cc(N3CC4COCC(C3)N4)c3cnn(-c4nnc(C(F)F)s4)c3c2)CC1` [Example 70, 1-[({1-[5-(difluoromethyl)(1,3,4-thiadiazol-2-yl)]-4-(7-oxa-3,9-diazabicyclo-[3.3.1]non-3-yl)-1H-indazol-6-yl}sulfonyl)amino]cyclopropanecarbonitrile] gave an IC50 in assay [1] of 0.1 to 0.3 µM.
Still for that read-out and setting: the figure for `CN(C)C(=O)N1CCCN(c2cc(S(=O)(=O)NC3(C#N)CC3)cc3c2cnn3-c2nnc(C(F)F)s2)CC1` [Example 78, [4-(1-[5-(difluoromethyl)(1,3,4-thiadiazol-2-yl)]-6-{[(cyanocyclopropyl)amino]-sulfonyl}(1H-indazol-4-yl))(1,4-diazaperhydroepinyl)]-N,N-dimethylcarboxamide] is 0.1 to 0.3 µM.

For orientation: IC50 means the concentration needed to halve the response being measured. Low readings indicate higher potency, high ones lower potency.

(Values after US20220389003A1, “4-SUBSTITUTED INDOLE AND INDAZOLE SULFONAMIDO DERIVATIVES AS PARG INHIBITORS” (IDEAYA BIOSCIENCES, INC., priority 2019, published 2022).)
